# Target: T1, P2X7 receptor (Homo sapiens, UniProt Q99572)
# T1 construct: host or cells: SH-SY5Y
# T1 sequence (Q99572 1-595): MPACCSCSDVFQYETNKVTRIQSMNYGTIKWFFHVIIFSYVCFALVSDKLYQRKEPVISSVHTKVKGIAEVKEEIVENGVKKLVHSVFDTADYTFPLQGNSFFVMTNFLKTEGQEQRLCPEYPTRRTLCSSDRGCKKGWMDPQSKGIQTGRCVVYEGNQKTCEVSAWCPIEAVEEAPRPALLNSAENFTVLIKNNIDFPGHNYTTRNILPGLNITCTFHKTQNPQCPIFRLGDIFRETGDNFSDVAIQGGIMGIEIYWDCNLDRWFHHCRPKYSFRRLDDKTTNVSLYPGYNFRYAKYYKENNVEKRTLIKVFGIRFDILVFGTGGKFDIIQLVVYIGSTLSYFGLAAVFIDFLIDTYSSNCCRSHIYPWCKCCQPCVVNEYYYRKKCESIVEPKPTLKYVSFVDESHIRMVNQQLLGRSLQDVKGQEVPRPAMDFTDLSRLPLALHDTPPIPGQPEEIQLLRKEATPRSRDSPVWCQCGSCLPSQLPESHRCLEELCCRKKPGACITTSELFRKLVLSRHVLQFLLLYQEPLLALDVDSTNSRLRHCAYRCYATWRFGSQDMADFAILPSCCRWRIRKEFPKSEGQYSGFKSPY
# Test: P2X7 calcium mobilization assay, high throughput, antagonist activity (Example 4A)
# Type: cell-based
# Settings: not given
# Protocol: One day prior to the experiment, cells are plated at a density of 100,000 cells/well in a 96 well black/clear TC plate (Corning® Costar®, Sigma-Aldrich Co., St. Louis, Mo.). […] After one hour dye incubation, wells are rinsed once with 50 μL assay solution, and are then incubated for an hour at room temperature with 100 μL assay solution containing the test compound. […] After the one hour incubation, plates are transferred to a FLIPR^TETRA instrument (Molecular Devices, Sunnyvale, Calif.) for calcium mobilization analysis.
# First, the average maximum relative fluorescent unit (RFU) response from the negative control wells (no agonist) is subtracted from the maximum response detected for each of the other experimental wells. Second, average maximum RFU response is calculated for the positive control wells (agonist wells).
row,Compound,IC50 [nM]
1,"O=C(Cc1cn2c(C(=O)NCC34CC5CC(CC(C5)C3)C4)cccc2n1)NCC1CCCO1 (stereo not drawn) [Compound 157, N-(adamantan-1-ylmethyl)-2-{2-oxo-2-[(tetrahydrofuran-2-ylmethyl)amino]ethyl}imi-dazo[1,2-a]pyridine-5-carboxamide]",< 2000

# Same assay, conditions: 50% decrease in the fluorescence response of cells exposed to 80 μM 2′(3′)-O-(4-benzoyl-benzoyl)adenosine 5′-triphosphate; Example 4A; read-out: IC50
row,Compound,IC50 [nM]
1,"O=C(CC12CC3CC(CC(C3)C1)C2)Nc1cccc2nc(C(=O)N3CCCC(O)C3)cn12 (stereo not drawn) [Compound 418, 2-adamantan-1-yl-N-{2-[(3-hydroxypiperidin-1-yl)carbonyl]imidazo [1,2-a]pyridin-5-yl}acetamide]",< 2000
2,"CC1CNCCN1C(=O)c1cn2c(C(=O)NCC34CC5CC(CC(C5)C3)C4)cccc2n1 (stereo not drawn) [Compound 602, N-(adamantan-1-ylmethyl)-2-[(2-methylpiperazin-1-yl)carbonyl]imidazo[1,2-a]pyridine-5-carboxamide]",< 2000
3,"CC1(C)[C@H]2CC[C@@H](CNC(=O)c3cccc4nc(C(=O)NC5CCC5)cn34)[C@@H]1C2 [Compound 495, 2-N-cyclobutyl-5-N-{[(1S,2R,5S)-6.6-dimethylbicyclo[3.1.1]hept-2-yl]methyl} imidazo[1,2-a]pyridine-2,5-dicarboxamide]",< 2000
4,"CN(CC1OCCO1)C(=O)c1cn2c(C(=O)NC[C@@H]3CC[C@H]4C[C@@H]3C4(C)C)cccc2n1 [Compound 468, 5-N-{[(1S,2R,5S)-6,6-dimethylbicyclo[3.1.1]hept-2-yl]methyl}-2-N-(1,3-dioxolan-2-ylmethyl)-2-N-methylimidazo[1,2-a]pyridine-2,5-dicarboxamide]",< 2000
5,"CC1(C)[C@@H]2CC[C@@H](CNC(=O)c3cccc4nc(CC(=O)NCC5CCNCC5)cn34)[C@H]1C2 [Compound 589, N-{[(1R,2R,5R)-6,6-dimethylbicyclo[3.1.1]hept-2-yl]methyl}-2-{2-oxo-2-[(piperidin-4-ylmethyl)amino]ethyl} imidazo[1,2-a]pyridine-5-carboxamide]",< 2000

# Same assay, conditions: 50% decrease in the fluorescence response of cells exposed to 80 μM of 2′(3′)-O-(4-benzoyl-benzoyl)adenosine 5′-triphosphate; Example 4A; read-out: IC50
row,Compound,IC50 [nM]
1,"O=C(NCc1ccncc1)c1cn2c(C(=O)NCC34CC5CC(CC(C5)C3)C4)cccc2n1 [Compound 661, 5-N-(adamantan-1-ylmethyl)-2-N-(pyridin-4-ylmethyl)imidazo [1,2-a]pyridine-2,5-dicarboxamide]",< 2000
2,"O=C(NCCN1CCCC1)c1cn2c(C(=O)NCC34CC5CC(CC(C5)C3)C4)cccc2n1 [Compound 646, 5-N-(adamantan-1-ylmethyl)-2-N-(2-pyrrolidin-1-ylethyl)imidazo[1,2-a]pyridine-2,5-dicarboxamide]",< 2000
3,"CC(C)CC(CNC(=O)c1cccc2nc(CC(=O)N3CCSCC3)cn12)c1ccccc1 (stereo not drawn) [Compound 797, N-(4-methyl-2-phenylpentyl)-2-(2-oxo-2-thiomorpholin-4-ylethyl)imidazo [1,2-a]pyridine-5-carboxamide]",< 2000
4,"CC(C)CC(CNC(=O)c1cccc2nc(CN3CC[C@@H](N)C3)cn12)C1CCCCC1 (stereo partly drawn) [Compound 739, 2-[(3-aminopyrrolidin-1-yl)methyl]-N-(2-cyclohaxyl-4-methylpentyl)imidazo [1,2-a]pyridine-5-carboxamide]",< 2000
5,"O=C(NCC12CC3CC(CC(C3)C1)C2)c1cccc2nc(C(=O)N3CCN([C@@H]4CCCC[C@H]4O)CC3)cn12 [Compound 701, N-(adamantan-1-ylmethyl)-2-({4-[(1R,2R)-2-hydroxycyclohexyl]piperazin-1-yl}carbonyl)imidazo[1,2-a]pyridine-5-carboxamide]",< 2000
6,"O=C(NCC12CC3CC(CC(C3)C1)C2)c1cccc2nc(Cc3nnn[nH]3)cn12 [Compound 685, N-(adamantan-1-ylmethyl)-2-(1H-tetrazol-5-ylmethyl)imidazo[1,2-a]pyridine-5-carboxamide]",< 2000
7,"NC1CCCN(C(=O)CCc2cn3c(C(=O)NCC45CC6CC(CC(C6)C4)C5)cccc3n2)C1 (stereo not drawn) [Compound 780, N-(adamantan-1-ylmethyl)-2-[3-(3-aminopiperidin-1-yl)-3-oxopropyl] imidazo[1,2-a] pyridine-5-carboxamide]",< 2000

# Same assay, conditions: 50% decrease in the fluorescence response of cells exposed to 80 μM of 2′(3′)-O-(4-benzoyl-benzoyl)adenosine 5′-triphosphate; determined as in Example 4A; read-out: IC50
row,Compound,IC50 [nM]
1,"O=C(NCC12CC3CC(CC(C3)C1)C2)c1cccc2nc(CC(Cc3ccccc3)C(=O)O)cn12 (stereo not drawn) [Compound 1003, 3-{5-[(adamantan-1-ylmethyl)carbamoyl]imidazo[1,2-a]pyridin-2-yl}-2-benzylpropanoic acid]",< 2000
2,"CCOC(=O)C1(c2cn3c(C(=O)NCC45CC6CC(CC(C6)C4)C5)cccc3n2)CCCC1 [Compound 833, ethyl 1-{5-[(adamantan-1-ylmethyl)carbamoyl]imidazo[1,2-a]pyridin-2-yl} cyclopentane-carboxylate]",< 2000
3,"COC1CCN(C(=O)Cc2cn3c(C(=O)NCC4(c5ccc(C(F)(F)F)cc5)CCCCC4)cccc3n2)CC1 [Compound 896, 2-[2-(4-methoxypiperidin-1 yl)-2-oxoethyl]-N-({1-[4-(trifluoromethyl)phenyl]cyclohexyl}methyl) imidazo[1,2-a] pyridine-5-carboxamide]",< 2000
4,"CCOC(=O)C(CCC(C)C)c1cn2c(C(=O)NCC34CC5CC(CC(C5)C3)C4)cccc2n1 (stereo not drawn) [Compound 907, ethyl 2-{5-[(adamantan-1-ylmethyl)carbamoyl]imidazo[1,2-a]pyridin-2-yl}-5-methylhexanoate]",< 2000

# Same assay, conditions: P2X7 calcium mobilization, Example 4A; 50% decrease in the fluorescence response of cells exposed to 80 μM of (2′(3′)-O-(4-benzoyl-benzoyl)adenosine 5′-triphosephate); read-out: IC50
row,Compound,IC50 [nM]
1,"CC(C)CC(CNC(=O)c1cccc2nc(C(C)N3CCOCC3)cn12)c1ccc(Cl)cc1 (stereo not drawn) [Compound 1037, N-[2-(4-chlorophenyl)-4-methylpentyl]-2-(1-morpholin-4-ylethyl) imidazo[1,2-a]pyridine-5-carboxamide]",< 2000
2,"CC(C)CC(CNC(=O)c1cccc2nc(CN3CC[C@@H](N(C)C)C3)cn12)c1ccc(Cl)cc1 (stereo partly drawn) [Compound 1039, N-[2-(4-chlorophenyl)-4-methylpentyl]-2-{[(3R)-3-(dimethylamino)pyrrolidin-1-yl]methyl} imidazo[1,2-a]pyridine-5-carboxamide]",< 2000

# Same assay, conditions: SH-SY5Y cells; 50% decrease in fluorescence response to 80 μM BzATP; read-out: IC50
row,Compound,IC50 [nM]
1,"COC[C@@H]1CCCN1C(=O)Cc1cn2c(C(=O)NCC34CC5CC(CC(C5)C3)C4)cccc2n1 [Compound 171, N-(adamantan-1-ylmethyl)-2-{2-[(2S)-2-(methoxymethyl)pyrrolidin-1-yl]-2-oxoethyl}imidazo[1,2-a]pyridine-5-carboxamide]",< 2000
2,"O=C(Cc1cn2c(C(=O)NCC34CC5CC(CC(C5)C3)C4)cccc2n1)NN1CCCCCC1 [Compound 163, N-(adamantan-1-ylmethyl)-2-[2-(azepan-1-ylamino)-2-oxoethyl]imidazo[1,2-a]pyridine-5-carboxamide]",< 2000

# Same assay, conditions: fluorescence response of cells exposed to 80 μM 2′(3′)-O-(4-benzoyl-benzoyl)adenosine 5′-triphosphate; Example 4A; read-out: IC50
row,Compound,IC50 [nM]
1,"N#CCCc1cn2c(C(=O)NCC34CC5CC(CC(C5)C3)C4)cccc2n1 [Compound 274, N-(adamantan-1-ylmethyl)-2-(2-cyanoethyl)imidazo[1,2-a]pyridine-5-carboxamide]",< 2000
2,"O=C(NCC12CC3CC(CC(C3)C1)C2)c1cccc2nc(CN3CCCC(F)(F)C3)cn12 [Compound 288, N-(adamantan-1-ylmethyl)-2-[(3,3-difluoropiperidin-1-yl)methyl]imidazo[1,2-a]pyridine-5-carboxamide]",< 2000
3,"O=C(CC12CC3CC(CC(C3)C1)C2)Nc1cccc2nc(C(=O)N3CCCCC3CO)cn12 (stereo not drawn) [Compound 415, 2-adamantan-1-yl-N-(2-{[2-(hydroxymethyl)piperidin-1-yl]carbonyl}imidazo[1,2-a]pyridin-5-yl)acetamide]",< 2000
4,"CC1(C)[C@H]2CC[C@@H](CNC(=O)c3cccc4nc(C(=O)N5CC[C@H](N)C5)cn34)[C@@H]1C2 [Compound 330, 2-{[(3S)-3-aminopyrrolidin-1-yl]carbonyl}-N-{[(1S,2R,5S)-6.6-dimethylbicyclo{3.1.1]hept-2-yl]methyl}imidazo[1,2-a]pyridine-5-carboxamide]",< 2000
5,"CCN(CC)C(=O)c1cn2c(NC(=O)CC34CC5CC(CC(C5)C3)C4)cccc2n1 [Compound 365, 5-[(adamantan-1-ylacetyl)amino]-N,N-diethylimidazo[1,2-a]pyridine-2-carboxamide]",< 2000
6,"O=C(CC12CC3CC(CC(C3)C1)C2)Nc1cccc2nc(C(=O)N3CCSCC3)cn12 [Compound 362, 2-adamantan-1-yl-N-[2-(thiomorpholin-4-ylcarbonyl)imidazo[1,2-a]pyridin-5-yl]acetamide]",< 2000
